Results as given in patent publication US10167262B2, “Herbicidal substituted 3-arylpyrazoles” (FMC CORPORATION, priority 2014, dated 2019).

Columns and labels:
Type in all cases: in vivo
[1] = test system: ragweed (common ragweed, Ambrosia elatior); experiment: Test C pre-/postemergence greenhouse test, plant response rating 0-100; conditions: Postemergence; for Plant response rating, Ragweed: scale 0 to 100
Outline: (§1)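 Pre- and postemergence greenhouse test: seeds sown in loam/sand and treated preemergence, or plants at 2–18 cm (1- to 4-leaf stage) in peat-based medium sprayed postemergence, with compounds in non-phytotoxic solvent plus surfactant. Visual rating versus untreated controls after 13–15 days, 0 (no effect) to 100 (complete control).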

[2] = test system: winter wheat (Triticum aestivum); experiment: as above; conditions: Postemergence; for Plant response rating, Wheat: scale 0 to 100
Outline: as §1

corn (Zea mays) = experiment: as above; conditions: Postemergence
Outline: as §1

[3] = test system: blackgrass (Alopecurus myosuroides); experiment: as above; conditions: Postemergence; for Plant response rating, Blackgrass: scale 0 to 100
Outline: as §1

[4] = test system: yellow nutsedge (Cyperus esculentus); experiment: as above; conditions: Postemergence; for Plant response rating, Nutsedge, Yellow: scale 0 to 100
Outline: as §1

[5] = test system: morningglory (Ipomoea coccinea); experiment: as above; conditions: Postemergence; for Plant response rating, Morningglory: scale 0 to 100
Outline: as §1

[6] = test system: pigweed (Amaranthus retroflexus); experiment: as above; conditions: Postemergence; for Plant response rating, Pigweed: scale 0 to 100
Outline: as §1

[7] = test system: johnsongrass (Sorghum halepense); experiment: as above; conditions: Postemergence; for Plant response rating, Johnsongrass: scale 0 to 100
Outline: as §1

[8] = test system: velvetleaf (Abutilon theophrasti); experiment: as above; conditions: Postemergence; for Plant response rating, Velvetleaf: scale 0 to 100
Outline: as §1

[9] = test system: galium (catchweed bedstraw, Galium aparine); experiment: as above; conditions: Postemergence; for Plant response rating, Galium: scale 0 to 100
Outline: as §1

[10] = test system: large (Lg) crabgrass (Digitaria sanguinalis); experiment: as above; conditions: Postemergence; for Plant response rating, Crabgrass, Large: scale 0 to 100
Outline: as §1

[11] = test system: lambsquarters (Chenopodium album); experiment: as above; conditions: Postemergence; for Plant response rating, Lambsquarters: scale 0 to 100
Outline: as §1

[12] = test system: windgrass (Apera spica-venti); experiment: Test C postemergence greenhouse test, plant response rating 0-100; conditions: for Plant response rating, Windgrass: scale 0 to 100
Outline: (§2)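 Visual rating vs. controls, 0 (no effect) to 100 (complete control), 13–15 d after postemergence treatment. Potted plants, 1- to 4-leaf stage (2–18 cm), greenhouse-held.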

[13] = test system: winter barley (Hordeum vulgare); experiment: as above; conditions: for Plant response rating, Barley: scale 0 to 100
Outline: as §2

CCn1cc(C(=O)c2cccs2)c(-c2cc(Cl)cc(Cl)c2)n1 [Compound 18]
0: Plant response rating (0 to 100), Wheat ([2]; 62 g ai/ha) | Plant response rating (0 to 100), Wheat ([2]; 125 g ai/ha) | Plant response rating, Wheat ([2]; 250 g ai/ha) | Plant response rating (0 to 100), Blackgrass ([3]; 62 g ai/ha) | Plant response rating, Blackgrass ([3]; 125 g ai/ha) | Plant response rating, Blackgrass ([3]; 250 g ai/ha) | Plant response rating, Blackgrass ([3]; 500 g ai/ha) | Plant response rating (0 to 100), Nutsedge, Yellow ([4]; 62 g ai/ha) | Plant response rating (0 to 100), Nutsedge, Yellow ([4]; 125 g ai/ha) | Plant response rating (0 to 100), Johnsongrass ([7]; 62 g ai/ha) | Plant response rating, Johnsongrass ([7]; 250 g ai/ha) | Plant response rating (0 to 100), Galium ([9]; 62 g ai/ha) | Plant response rating (0 to 100), Galium ([9]; 125 g ai/ha) | Plant response rating, Galium ([9]; 250 g ai/ha) | Plant response rating (0 to 100), Windgrass ([12]; 62 g ai/ha) | Plant response rating (0 to 100), Windgrass ([12]; 125 g ai/ha) | Plant response rating, Windgrass ([12]; 250 g ai/ha) | Plant response rating (0 to 100), Barley ([13]; 62 g ai/ha) | Plant response rating, Barley ([13]; 125 g ai/ha) | Plant response rating, Barley ([13]; 250 g ai/ha) | Plant response rating, Barley ([13]; 500 g ai/ha)
100: Plant response rating (0 to 100), Pigweed ([6]; 125 g ai/ha) | Plant response rating, Pigweed ([6]; 250 g ai/ha) | Plant response rating, Pigweed ([6]; 500 g ai/ha)
90: Plant response rating, Lambsquarters ([11]; 500 g ai/ha)
5: Plant response rating, Wheat ([2]; 500 g ai/ha) | Plant response rating (0 to 100), Corn (corn (Zea mays); 125 g ai/ha) | Plant response rating, Nutsedge, Yellow ([4]; 250 g ai/ha) | Plant response rating, Nutsedge, Yellow ([4]; 500 g ai/ha) | Plant response rating (0 to 100), Morningglory ([5]; 62 g ai/ha) | Plant response rating, Johnsongrass ([7]; 500 g ai/ha) | Plant response rating (0 to 100), Crabgrass, Large ([10]; 62 g ai/ha) | Plant response rating (0 to 100), Crabgrass, Large ([10]; 125 g ai/ha) | Plant response rating, Windgrass ([12]; 500 g ai/ha)
10: Plant response rating (0 to 100), Ragweed ([1]; 125 g ai/ha) | Plant response rating, Corn (corn (Zea mays); 250 g ai/ha, scale 0 to 100) | Plant response rating (0 to 100), Morningglory ([5]; 125 g ai/ha)
15: Plant response rating, Ragweed ([1]; 250 g ai/ha) | Plant response rating, Crabgrass, Large ([10]; 250 g ai/ha)
65: Plant response rating (0 to 100), Velvetleaf ([8]; 125 g ai/ha)
60: Plant response rating (0 to 100), Lambsquarters ([11]; 62 g ai/ha)
45: Plant response rating, Morningglory ([5]; 500 g ai/ha)
85: Plant response rating (0 to 100), Pigweed ([6]; 62 g ai/ha) | Plant response rating (0 to 100), Lambsquarters ([11]; 125 g ai/ha) | Plant response rating, Lambsquarters ([11]; 250 g ai/ha)
25: Plant response rating, Ragweed ([1]; 500 g ai/ha)
70: Plant response rating, Velvetleaf ([8]; 250 g ai/ha)
35: Plant response rating, Galium ([9]; 500 g ai/ha)
80: Plant response rating, Velvetleaf ([8]; 500 g ai/ha)
50: Plant response rating (0 to 100), Velvetleaf ([8]; 62 g ai/ha)
20: Plant response rating, Morningglory ([5]; 250 g ai/ha) | Plant response rating, Crabgrass, Large ([10]; 500 g ai/ha)
